Results published in patent US6790869B2, “Resveratrol analogs for prevention of disease” (Rutgers, The State University of New Jersey, priority 1999, dated 2004).
Where two headings read alike, the source gives them in different places.

Experiments:
[1] = test system: W138 human diploid fibroblasts; test: Cell proliferation assay, viable cells counted by trypan blue dye exclusion; format: cell-based; design: key to Growth Rate in Cells Following Exposure to Resveratrol Analogs, W138 Cells: +: >60% growth inhibition; —: no effect or only slight inhibition observed; conditions: for Growth Rate in Cells Following Exposure to Resveratrol Analogs, W138 Cells: at the concentration in parentheses after the analog, 5 days in culture
Procedure: (§1) Initial tests examined the potential cancer preventive activity of the analogs. Resveratrol and its analogs were evaluated in W138 and SV40 transformed W138VA cells and in preneoplastic 184-B5/HER and neoplastic SK-BR-3 human mammary epithelial cells. Cell proliferation, apoptosis, and gene expression studies were conducted using standard methodologies.
(§2) W138 human diploid fibroblasts and cancerous SV40-transformed W138 cells (W138VA) were used in a cell proliferation assay. Growth rate and viability of these cells was determined following addition of each analog. Doses tested ranged from 50 ng to 300 μg per ml or 1 μM to 100 μM concentrations in culture media. Cell cultures were grown for 5 days in the presence of the various doses of analogs. Growth rate was measured by counting viable cells using the trypan blue dye exclusion method. Resveratrol inhibited cell growth at low concentrations, less than 10 μM. […] MR-1 was not active as an inhibitor of cell growth even at doses as high as 100 μM.

[2] = test system: SV40-transformed W138 cells (W138VA); test: as above; format: cell-based, human; design: key to Growth Rate in Cells Following Exposure to Resveratrol Analogs, W138VA Cells: +: >60% growth inhibition; —: no effect or only slight inhibition observed; conditions: for Growth Rate in Cells Following Exposure to Resveratrol Analogs, W138VA Cells: at the concentration in parentheses after the analog, 5 days in culture
Procedure: as §1, §2

W138 and W138VA cells = test: Cell proliferation assay, result not separated by cell line; format: cell-based, human; conditions: for effective concentration for growth inhibition: value in parentheses in Table 1, W138 / W138VA cells, 5 days
Procedure: as §1, §2

W138 cells = test: Morphological changes in cells; format: cell-based, human; conditions: normal W138 cells
Excerpt: (§3) In addition to inhibition of cell growth, treatment of W138 and W138VA cells with analogs led to morphological changes in the cells. Treatment of W138 cells with resveratrol and its analogs R-1 and R-3 led to elongation of normal W138 cells. Methoxy analogs such as MR-0 and MR-3 caused the flattening of W138 cells.

[3] = test system: neutral β-galactosidase activity in W138 cells; test: Neutral β-galactosidase staining (senescence marker); format: cell-based, human; conditions: accompanying flattening
Excerpt: as §3

184-B5/HER cells [4] = test: Growth inhibition in 184-B5/HER cells; format: cell-based; conditions: Homo sapiens
Procedure: as §1
(§4) Resveratrol and its analogs were also tested in 184-B5/HER cells.

184-B5/HER cells [5] = test: Cell cycle analysis; format: cell-based, human
Procedure: as §4

184-B5/HER cells [6] = test: Apoptosis assay, fluorescent labeling of fragmented DNA; format: cell-based, human
Excerpt: The effect of the analogs on apoptosis was also examined. Apoptosis is characterized by nuclear DNA fragmentation that is mediated through a variety of signal transduction pathways. An assay was used that relies on fluorescent labeling of fragmented DNA.

184-B5/HER cells [7] = test: Anchorage-dependent colony formation assay; format: cell-based; conditions: Homo sapiens
Excerpt: Cell colony formation was also examined in 184-B5/HER cells. […] Resveratrol, MR-0 and MR-2 produced approximately 25-40% inhibition in the anchorage-dependent colony formation assay. MR-3, however, produced almost a 80% inhibition of colony formation.

[8] = test system: human glyceraldehyde-3-phosphate dehydrogenase (HG3PDH) expression; test: Targeted gene assay by RT-PCR; format: cell-based; conditions: W138 and W138VA cells, serum-stimulated from G0
Procedure: (§5) Targeted gene assay was then performed using RT-PCR. Both normal (W138) and cancerous (W138VA) cells at resting phase (G0) were treated with 10-15% fetal bovine serum to initiate growth stimulation. Cells were then harvested at various time points during cell cycle progression. Total RNA was prepared from these cells according to standard RT-PCR methods. Paired gene specific primers were prepared and used including human glyceraldehyde-3-phosphate dehydrogenase HG3PDH), c-fos, c-myc, ornithine decarboxylase (ODC), proliferating cell nuclear antigen (PCNA), thymidine kinase (TK), cyclooxygenase 2 (COX2), BRCA1, BRCA2, p53, APC, MCC, pRb, cyclooxygenase 1 (COX1), bc12, and Bax. […] Expression of c-fos and c-myc, an early G1 event in normal W138 cells, were both deregulated in transformed W138VA cells. […] Similarly, treatment of cells, both normal and transformed, with either resveratrol or MR-3 had no effect on expression of ODC, PCNA, or TK genes (all cell cycle dependent genes).

c-fos expression = test: Targeted gene assay by RT-PCR; format: cell-based, human; conditions: W138 and W138VA cells, serum-stimulated from G0
Procedure: as §5

c-myc expression = test: Targeted gene assay by RT-PCR; format: cell-based, human; conditions: W138 and W138VA cells, serum-stimulated from G0
Procedure: as §5

[9] = test system: cyclooxygenase 2 (COX2) expression; test: Targeted gene assay by RT-PCR; format: cell-based, human
Procedure: as §5

[10] = test system: ornithine decarboxylase (ODC) gene expression; test: Targeted gene assay by RT-PCR; format: cell-based, human; conditions: both normal and transformed cells
Procedure: as §5

[11] = test system: proliferating cell nuclear antigen (PCNA) gene expression; test: Targeted gene assay by RT-PCR; format: cell-based, human; conditions: both normal and transformed cells
Procedure: as §5

[12] = test system: thymidine kinase (TK) gene expression; test: Targeted gene assay by RT-PCR; format: cell-based, human; conditions: both normal and transformed cells
Procedure: as §5

BRCA1 gene expression = test: Targeted gene assay by RT-PCR; format: cell-based, human; conditions: for effect on expression of BRCA1 gene: human cells, all time points examined
Procedure: as §5
(§6) Both BRCA1 and BRCA2 are breast cancer genes that together appear to be responsible for more than 60% of total hereditary breast cancers. Therefore, resveratrol and its analogs appear to modulate the breast cancer genes.

BRCA2 gene expression = test: Targeted gene assay by RT-PCR; format: cell-based, human; conditions: for effect on expression of BRCA2 gene: human cells, all time points examined
Procedure: as §5, §6

[13] = test system: oncogene expression preneoplastic breast epithelial cells; test: In vivo tumor inhibition in an orthotransplant model; conditions: mice, AIN-76A diet with 400 ppm
Procedure: The in vivo tumor inhibitory effects of MR-3 were tested in an orthotransplant model. Mice were transplanted with an oncogene expression preneoplastic breast epithelial cells. Mice were then divided into groups with the control group fed AIN-76A diet alone. Another group of mice was fed AIN-76A diet supplemented with 400 ppm MR-3.

[14] = read-out: concentration that inhibited growth by 50% (IC50), 184-B5/HER cells
[15] = 184-B5/HER cells, continuous treatment with 4 μM, read-out: inhibition of colony formation

COc1ccc(C=Cc2cc(OC)cc(OC)c2)cc1 [MR-0, 3,4′,5-trimethoxystilbene]
ability to inhibit cell growth compared with resveratrol ([1]; W138 cells): less effective than resveratrol
Growth Rate in Cells Following Exposure to Resveratrol Analogs, W138 Cells [1]: + (>60% growth inhibition)
ability to inhibit cell growth compared with resveratrol ([2]; W138VA cells): did not significantly affect
Growth Rate in Cells Following Exposure to Resveratrol Analogs, W138VA Cells [2]: + (>60% growth inhibition)
effective concentration for growth inhibition (W138 and W138VA cells): MR0 (100 μM)
morphological change of cells (W138 cells): flattening
neutral β-galactosidase activity (staining) [3]: increase in neutral β-galactosidase activity
IC50 (184-B5/HER cells [4]; [14]): 10.5 µM
cell cycle effect relative to solvent-treated control cultures (184-B5/HER cells [5]): progressive arrest of cell in the G2/M phase
induction of apoptosis versus solvent-treated control cells (184-B5/HER cells [6]): induced apoptosis to a significantly greater extent than solvent-treated control cells
inhibition at 4 µM (184-B5/HER cells [7]; [15]): 25 to 40%

COc1cc(C=Cc2ccc(OC)c(OC)c2)cc(OC)c1 [MR-2, 3,3′,4,5′-tetramethoxystilbene]
IC50 (184-B5/HER cells [4]; [14]): 120 µM
cell cycle effect relative to solvent-treated control cultures (184-B5/HER cells [5]): progressive arrest of cell in the G2/M phase
induction of apoptosis versus solvent-treated control cells (184-B5/HER cells [6]): induced apoptosis to a significantly greater extent than solvent-treated control cells
inhibition at 4 µM (184-B5/HER cells [7]; [15]): 25 to 40%

COc1ccc(C=Cc2cc(OC)c(OC)c(OC)c2)cc1 [MR-3, 3,4,4′,5-tetramethoxystilbene]
effect on growth ([1]; W138 cells, 1 μM): no effect
Growth Rate in Cells Following Exposure to Resveratrol Analogs, W138 Cells [1]: —
effect on proliferation ([2]; W138VA cells, 1 μM): completely blocked proliferation
Growth Rate in Cells Following Exposure to Resveratrol Analogs, W138VA Cells [2]: + (>60% growth inhibition)
rank in inhibiting cell growth among the methylated analogs (W138 and W138VA cells): most effective
effective concentration for growth inhibition (W138 and W138VA cells): MR3 (1 μM)
morphological change of cells (W138 cells): flattening
neutral β-galactosidase activity (staining) [3]: increase in neutral β-galactosidase activity
IC50 (184-B5/HER cells [4]; 184B5, read-out: concentration that inhibited growth by 50% (IC50)): 1 µM
cell cycle effect relative to solvent-treated control cultures (184-B5/HER cells [5]): progressive arrest of cell in the G2/M phase
rank in cell cycle arrest (184-B5/HER cells [5]): most effective compound
induction of apoptosis versus solvent-treated control cells (184-B5/HER cells [6]): no effect
inhibition at 4 µM (184-B5/HER cells [7]; 184B5, read-out: inhibition of colony formation): ~80%
effect on expression of HG3PDH [8]: did not affect the expression
effect on expression of c-fos (c-fos expression): did not significantly affect the expression
effect on expression of c-myc (c-myc expression): did not significantly affect the expression
effect on expression of COX2 ([9]; W138VA cells): stimulated the expression
effect on expression of COX2 ([9]; W138 cells): not in W138 cells
effect on expression of ODC gene [10]: no effect
effect on expression of PCNA gene [11]: no effect
effect on expression of TK gene [12]: no effect
potency in inhibiting expression of BRCA1 compared with resveratrol (BRCA1 gene expression; at equal doses): more potent than resveratrol
effect on expression of BRCA1 gene (BRCA1 gene expression): completely abolished expression
potency in inhibiting expression of BRCA2 compared with resveratrol (BRCA2 gene expression; at equal doses): more potent than resveratrol
effect on expression of BRCA2 gene (BRCA2 gene expression): completely abolished expression
weight gains compared with control group ([13]; 12 weeks): comparable
tumor incidence ([13]; 12 weeks continuous feeding, control group 100%): 20%

COc1cc(C=Cc2cc(OC)c(OC)c(OC)c2)cc(OC)c1 [MR-5, 3,3′,4,5,5′-pentamethoxystilbene]
Growth Rate in Cells Following Exposure to Resveratrol Analogs, W138 Cells [1]: + (>60% growth inhibition)
Growth Rate in Cells Following Exposure to Resveratrol Analogs, W138VA Cells [2]: + (>60% growth inhibition)
effective concentration for growth inhibition (W138 and W138VA cells): MR5 (100 μM)

COc1cc(C=Cc2ccccc2)cc(OC)c1 [MR-1, 3,5-dimethoxystilbene]
Growth Rate in Cells Following Exposure to Resveratrol Analogs, W138 Cells [1]: —^4
Growth Rate in Cells Following Exposure to Resveratrol Analogs, W138VA Cells [2]: —
activity as an inhibitor of cell growth (W138 and W138VA cells; doses as high as 100 μM): not active
effective concentration for growth inhibition (W138 and W138VA cells): MR1 (100 μM)

Oc1cc(O)cc(C=Cc2ccccc2)c1 [Analog R-1, 3,5-dihydroxystilbene]
morphological change of cells (W138 cells): elongation

COc1cc(C=Cc2cc(OC)cc(OC)c2)cc(OC)c1 [MR-4, 3,3′,5′5′-tetramethoxystilbene]
inhibition of growth ([1]; W138 cells, 100 μM): inhibited growth
Growth Rate in Cells Following Exposure to Resveratrol Analogs, W138 Cells [1]: + (>60% growth inhibition)
inhibition of growth ([2]; W138VA cells, 100 μM): not W138VA cells
Growth Rate in Cells Following Exposure to Resveratrol Analogs, W138VA Cells [2]: —
effective concentration for growth inhibition (W138 and W138VA cells): MR4 (100 μM)

Oc1ccc(C=Cc2cc(O)cc(O)c2)cc1 [Resveratrol, 3,4′,5-trihydroxystilbene]
Growth Rate in Cells Following Exposure to Resveratrol Analogs, W138 Cells [1]: +^2 (>60% growth inhibition)
Growth Rate in Cells Following Exposure to Resveratrol Analogs, W138VA Cells [2]: + (>60% growth inhibition)
concentration at which cell growth was inhibited (W138 and W138VA cells; 5 days in culture): less than 10 μM
effective concentration for growth inhibition (W138 and W138VA cells): R0 (10 μM)^1
morphological change of cells (W138 cells): elongation
IC50 (184-B5/HER cells [4]; [14]): 10.5 µM
induction of apoptosis versus solvent-treated control cells (184-B5/HER cells [6]): induced apoptosis to a significantly greater extent than solvent-treated control cells
inhibition at 4 µM (184-B5/HER cells [7]; [15]): 25 to 40%
effect on expression of HG3PDH [8]: did not affect the expression
effect on expression of c-fos (c-fos expression): did not significantly affect the expression
effect on expression of c-myc (c-myc expression): did not significantly affect the expression
effect on expression of ODC gene [10]: no effect
effect on expression of PCNA gene [11]: no effect
effect on expression of TK gene [12]: no effect
effect on expression of BRCA1 gene (BRCA1 gene expression): completely abolished expression
effect on expression of BRCA2 gene (BRCA2 gene expression): completely abolished expression
